From patent US20260207626A1, “SYNTHETIC TRITERPENOIDS AND COMPOSITIONS THEREOF IN WEIGHT MANAGEMENT, SKELETAL MUSCLE FUNCTION, AND APPETITE SUPPRESSION” (The Board of Regents of the University of Texas System, priority 2022, published 2026)
Entries after “also recorded” stand apart in the source; their conditions may differ.

Assays:
p38 = test: Western blot of p38 phosphorylation in L6-GLUT4myc myotubes; type: cell-based, rat; conditions: CDDO-EA treated myotubes vs control
Description: FIG. 16B. The protein p38 has been reported to be involved in insulin-independent glucose metabolism. FIG. 16B represents results from a study performed to illustrate that CDDO-EA activated phosphorylation of p38. Immunoblotting was performed to measure the protein content of phosphorylated p38 and total p38 protein. Protein content of actin is used as a control to confirm protein loading is the same across the lanes of the immunoblot. […] The first row of horizontal bands is the Control group (bands #1, #2, and #3) content of phosphorylated p38 (P-p38) with no CDDO-EA treatment.
(§1) Western blotting and subcellular fractionation: L6-GLUT4myc myoblasts (4×10^4 cells/ml, 2 ml/well) were seeded onto 6-well dishes and differentiated with differentiation medium for 7 days. […] Protein concentrations were determined using the Pierce BCA Protein Assay (Thermo Fisher Scientific), and equal amounts of protein were separated by electrophoresis and subsequently transferred to nitrocellulose membranes. Membranes were analyzed using the following antibodies from Cell Signaling Technology: phosphorylated NF-κB (Ser536) (93 H1, cat #3033,1:1000), phosphorylated IKB-α (Ser32) (14D4, cat #2859,1:1000), IKB-α (44D4, cat #4812, 1:1000), phosphorylated p38 (Thr180/Tyr182) (cat #9211, 1:1000), p38 (cat #9212, 1:1000). […] Bands were quantitated using ImageQuant (GE Healthcare). […]

TNF-α = test: LPS-induced TNF-α ELISA in RAW 264.7 macrophages; type: cell-based, mouse; conditions: RAW264.7, 500 nM CDDO-EA 1 hour then 100 ng/ml LPS 6 hours
Description: Cytokine detection: RAW 264.7 cells were grown on 24-well dishes at 1×10^6 cells/ml, 0.5 ml/well. Cells were pre-treated with CDDO-EA 500 nM for 1 h. After 1 h, cells were treated with 100 ng/ml of LPS16,18 (E. coli O111: B4, Sigma Aldrich) for 6 h, and supernatants were collected and stored at −80° C. until analysis. TNF-α from the culture media of cells was measured and quantified using a Mouse TNF (Mono/Mono) ELISA Set (BD Bioscience) according to the manufacturer's instructions.

NF-κB = NF-κB luciferase reporter assay in L6-GLUT4myc myotubes; type: cell-based, rat; conditions: 500 nM CDDO-EA 1 hr then 100 ng/ml LPS 6 hours
Description: To determine the effects of CDDO-EA on LPS-induced NF-κB transcriptional activity in L6-GLUT4myc myotubes, a luciferase reporter under the control of a promoter containing NF-κB transcription binding sites was used.
Luciferase assay: L6-GLUT4myc myoblasts were transfected with 2 μg of phosphorylated NF-κB-MetLuc2-Reporter plasmid as described previously. After transfection, cells were plated onto a 24-well dish (1.5×10^5 cells/well) and pre-treated with CDDO-EA for 1 h. Myotubes were then stimulated with LPS 100 ng/ml (E. coli 0111: B4, Sigma Aldrich) for 6 h, and luciferase activity was measured using the Ready-To-Glow™ NF-κB Secreted Luciferase Reporter System as described.

MCP-1 = test: Quantitative RT-PCR of LPS-induced MCP-1 mRNA in L6-GLUT4myc myotubes; type: cell-based, rat; conditions: 500 nM CDDO-EA 1 hr then 100 ng/ml LPS 1 hr
Description: Quantitative RT-PCR: L6-GLUT4myc myoblasts (4×10^4 cell/ml, 2 ml/well) were seeded on a 6-well plate and differentiated into myo-tubes with differentiation medium for 7 days. Myotubes were pre-treated with CDDO-EA 500 nM for 1 h followed by LPS 100 ng/ml (E. coli O111: B4, Sigma Aldrich) treatment for 1 h. RNA was isolated from treated myotubes using TRIzol reagent (Ambion) according to the manufacturer's instructions. Validated RT-PCR primers specific for rat TNF-α (Assay ID: Rn99999017_m1) and rat MCP-1 (Assay ID: Rn00580555_m1), or rat GAPDH (Assay ID: Rn99999916_s1) were used to quantify mRNA levels using TaqMan RNA-to-CT 1-Step Kit (Thermo Fisher Scientific), Real-time PCR was carried out using an AB7900HT Fast Real-Time PCR System (Applied Biosystems), and MCP-1 and TNF-α levels were calculated using the ΔΔCT method according to the manufacturer's instructions.

NF-κB p65 (Ser536) = test: Western blot of LPS-induced NF-κB phosphorylation in L6-GLUT4myc myotubes; type: cell-based, rat; conditions: 500 nM CDDO-EA 1 hr then 100 ng/ml LPS 1 hr
Source text: To examine the anti-inflammatory properties of CDDO-EA in skeletal muscle cells, CDDO-EA was examined for its effect on nuclear factor-kappa B (NF-κB) activity in L6-GLUT4myc muscle cells, in the context of LPS-mediated inflammatory responses in L6-GLUT4myc muscle cells. All experiments were independently repeated one to four times and done in duplicate or triplicate, and data were statistically analyzed by One-Way ANOVA or unpaired t-test, two tailed.
Cells were studied with vehicle alone [0.125% dimethyl sulfoxide (DMSO)] and LPS with and without CDDO-EA. […]
as §1

Compound: CCNC(=O)[C@]12CCC(C)(C)C[C@H]1C1C(=O)C=C3[C@@]4(C)C=C(C#N)C(=O)C(C)(C)[C@@H]4CC[C@@]3(C)[C@]1(C)CC2 (stereo partly drawn) [CDDO-EA, (4aS,6aR,6bS,8aR,12aS,14bS)-11-cyano-N-ethyl-2,2,6a,6b,9,9,12a-heptamethyl-10,14-dioxo-1,3,4,5,6,6a,6b, 7,8,8a,9,10,12a, 14,14a, 14b-hexadecahydropicene-4a (2H)-carboxamide]
- p38 phosphorylation (normalized to total p38, percent over control) (p38): effective for inducing p38 phosphorylation; also recorded: two-fold increase in activation of p38 phosphorylation; also recorded: activates GLUT4 translocation to cell membrane and p38 phosphorylation
- total p38 protein expression (p38): had no effect on p38 protein expression
- LPS-induced TNF-α production (TNF-α): substantially blocked; also recorded: inhibits LPS-induced cytokines secretion in macrophages
- LPS-induced NF-κB transcriptional (luciferase) activity (NF-κB): prevented the promoter activity of NF-κB; also recorded: significantly inhibited the LPS-induced NF-κB activity; also recorded: blocks NF-κB transcriptional activity
- LPS-induced MCP-1 mRNA expression (MCP-1): lowered LPS-induced mRNA levels of TNF-α and MCP-1; also recorded: blocked the mRNA expression of LPS-induced TNF-α and MCP-1; also recorded: reduced LPS-induced TNF-α and MCP-1 gene expression levels; also recorded: inhibits LPS-inducted TNF-α and MCP-1 gene expression
- LPS-induced NF-κB phosphorylation (NF-κB p65 (Ser536)): decreased LPS-induced NF-κB and nuclear factor of kappa light polypeptide gene enhancer in B-cells inhibitor-alpha (IκB) phosphorylation; also recorded: inhibited LPS-induced NF-κB phosphorylation; also recorded: inhibits lipopolysaccharide (LPS)-induced NF-κB and Inhibitory kappa B alpha (IκB-α) phosphorylation
